Values of other authors as cited in patent US20150119272A1, “DOSE-RESPONSE MEDICAL OUTCOME MODEL PREDICTOR SYSTEM AND METHOD” (ROYAL COLLEGE OF SURGEONS IN IRELAND, priority 2012, published 2015).

Tests used:
Bcl-(X)L = Bcl-(X)L (Homo sapiens, UniProt Q07817); settings: binding to Bcl-(X)L; taken from literature (Lessene et al. 2008)
Mcl-1 = Mcl-1 (Homo sapiens, UniProt Q07820); settings: binding to Mcl-1; taken from literature (Lessene et al. 2008)
Sequence of Mcl-1 (Q07820 whole entry, species assumed): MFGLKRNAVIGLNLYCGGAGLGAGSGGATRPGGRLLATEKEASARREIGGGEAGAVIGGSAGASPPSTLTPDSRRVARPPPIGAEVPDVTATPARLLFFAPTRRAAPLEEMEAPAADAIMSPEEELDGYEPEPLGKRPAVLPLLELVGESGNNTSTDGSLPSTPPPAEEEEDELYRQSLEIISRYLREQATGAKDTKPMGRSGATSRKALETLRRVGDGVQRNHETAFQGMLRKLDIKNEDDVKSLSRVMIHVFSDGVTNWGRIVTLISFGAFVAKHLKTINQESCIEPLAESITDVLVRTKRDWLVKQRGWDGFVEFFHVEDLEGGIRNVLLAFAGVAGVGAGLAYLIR

Sequence of Bcl-(X)L (Q07817 whole entry, species assumed): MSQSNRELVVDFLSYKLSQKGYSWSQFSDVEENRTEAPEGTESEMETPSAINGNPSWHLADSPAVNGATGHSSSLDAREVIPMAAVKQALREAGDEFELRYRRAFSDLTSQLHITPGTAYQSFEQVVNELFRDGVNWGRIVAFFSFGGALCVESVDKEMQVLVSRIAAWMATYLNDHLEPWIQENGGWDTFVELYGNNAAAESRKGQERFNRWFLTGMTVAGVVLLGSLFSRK

## Cc1cc2c(C(C)C)c(O)c(O)c(C=O)c2c(O)c1-c1c(C)cc2c(C(C)C)c(O)c(O)c(C=O)c2c1O [Gossypol]
Bcl-(X)L
  Kd: 660 nM
Mcl-1
  Kd: 25 nM
